# Test results: patent US8680159B2, “Bradykinin 1 receptor modulating compounds” (Gruenenthal GmbH, priority 2010, dated 2014)
# Molecular target: T1, B1R receptor of the rat (CHO K1 cells stably transfected with the B1R gene of the rat) (Rattus norvegicus, UniProt P97583)
# T1 construct: expressed in transfected cells; host or cells: CHO K1 cells (Chinese hamster ovary), stably transfected
# T1 sequence (P97583 1-337): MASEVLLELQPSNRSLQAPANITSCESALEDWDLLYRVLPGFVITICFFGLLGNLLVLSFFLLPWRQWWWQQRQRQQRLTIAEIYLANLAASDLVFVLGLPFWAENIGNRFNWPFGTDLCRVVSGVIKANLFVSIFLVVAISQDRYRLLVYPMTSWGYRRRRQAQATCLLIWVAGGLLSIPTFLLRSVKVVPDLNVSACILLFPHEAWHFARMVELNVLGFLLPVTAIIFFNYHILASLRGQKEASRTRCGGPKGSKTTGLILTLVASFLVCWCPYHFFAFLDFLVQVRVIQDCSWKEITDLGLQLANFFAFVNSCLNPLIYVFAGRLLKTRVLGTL
# Assay: Functional study on the bradykinin receptor 1 (B1R), Ca2+ fluorescence (Fluo-4) FLIPR/Novostar assay, rB1R cells
# Assay type: cell-based
# Details: CHO-K1, 10 μM, library compounds CC_H, read-out: % Inhibition (r-B1R) at 10 μM
# Summary of the method: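 Test compounds (10 μM) were added first and the Ca2+ rise was scored as % activation against Lys-Des-Arg9-bradykinin (≥50 nM, human) or Des-Arg9-bradykinin (≥1 μM, rat). After 6-20 min, the matching agonist was given at its EC80, and % inhibition relative to maximal achievable inhibition was calculated.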
row,SMILES,inhibition at 10 µM [%]
1,"CN(C)C(=O)c1cc(N2CCC(N(C)C(=O)c3ccc4c(c3)C(NC(=O)CCC3CCCC3)CC4)CC2)ccn1 (stereo not shown) [CC_H-615, 4-[4-[[3-(3-Cyclopentyl-propanoylamino)-2,3-dihydro-1H-inden-5-carbonyl]-methyl-amino]-piperidin-1-yl]-N,N-dimethyl-pyridine-2-carboxylic acid amide]",65
2,"CN(C(=O)c1ccc2c(c1)C(NC(=O)c1ccccc1Cl)CC2)C1CCN(c2ccnc(C(C)(C)C)n2)CC1 (stereo not shown) [CC_H-616, N-[1-(2-tert-Butyl-pyrimidin-4-yl)-piperidin-4-yl]-3-[(2-chloro-benzoyl)amino]-N-methyl-2,3-dihydro-1H-indene-5-carboxylic acid amide]",101
3,"Cc1ncc2n1C(=O)N(C1CCC(N(C)C(=O)c3ccc4c(c3)C(NC(=O)c3ccccc3Cl)CC4)CC1)C2 (stereo not shown) [CC_H-618, 3-[(2-Chloro-benzoyl)amino]-N-methyl-N-[4-(5-methyl-3-oxo-1,2-dihydro-imidazo[5,1-e]imidazol-2-yl)-cyclohexyl]-2,3-dihydro-1H-indene-5-carboxylic acid amide]",84
4,"CN(C(=O)c1ccc2c(c1)C(NC(=O)c1cccnc1C(F)(F)F)CC2)C1CCN(c2ncncc2F)CC1 (stereo not shown) [CC_H-621, N-[6-[[1-(5-Fluoro-pyrimidin-4-yl)-piperidin-4-yl]-methyl-carbamoyl]-2,3-dihydro-1H-inden-1-yl]-2-(trifluoromethyl)-pyridine-3-carboxylic acid amide]",98
5,"CN(C)c1nccc(N2CCC(N(C)C(=O)c3ccc4c(c3)C(NC(=O)c3ccccc3Cl)CC4)CC2)n1 (stereo not shown) [CC_H-623, 3-[(2-Chloro-benzoyl)amino]-N-[1-(2-dimethylamino-pyrimidin-4-yl)-piperidin-4-yl]-N-methyl-2,3-dihydro-1H-indene-5-carboxylic acid amide]",101
6,"CN(C(=O)c1ccc2c(c1)C(NC(=O)c1ccccc1Cl)CC2)C1CCN(c2ccnc(C3CC3)n2)CC1 (stereo not shown) [CC_H-627, 3-[(2-Chloro-benzoyl)amino]-N-[1-(2-cyclopropyl-pyrimidin-4-yl)-piperidin-4-yl]-N-methyl-2,3-dihydro-1H-indene-5-carboxylic acid amide]",100
7,"CN(C(=O)c1ccc2c(c1)C(NC(=O)c1cccnc1C(F)(F)F)CC2)C1CCN(c2ccnnc2)CC1 (stereo not shown) [CC_H-628, N-[6-[Methyl-(1-pyridazin-4-yl-piperidin-4-yl)-carbamoyl]-2,3-dihydro-1H-inden-1-yl]-2-(trifluoromethyl)-pyridine-3-carboxylic acid amide]",99
8,"CN(C(=O)c1ccc2c(c1)C(NC(=O)c1ccccc1Cl)CC2)C1CCN(c2ncncc2F)CC1 (stereo not shown) [CC_H-631, 3-[(2-Chloro-benzoyl)amino]-N-[1-(5-fluoro-pyrimidin-4-yl)-piperidin-4-yl]-N-methyl-2,3-dihydro-1H-indene-5-carboxylic acid amide]",94
9,"CN(C(=O)c1ccc2c(c1)C(NC(=O)c1ccccc1Cl)CC2)C1CCN(c2ccnnc2)CC1 (stereo not shown) [CC_H-633, 3-[(2-Chloro-benzoyl)amino]-N-methyl-N-(1-pyridazin-4-yl-piperidin-4-yl)-2,3-dihydro-1H-indene-5-carboxylic acid amide]",103

# Second part, the molecule after the results:
row,inhibition at 10 µM [%],SMILES
1,102,"CN(C(=O)c1ccc2c(c1)C(NC(=O)CCC1CCCC1)CC2)C1CCN(c2ccnc(N3CCCC3)n2)CC1 (stereo not shown) [CC_H-620, 3-(3-Cyclopentyl-propanoylamino)-N-methyl-N-[1-(2-pyrrolidin-1-yl-pyrimidin-4-yl)-piperidin-4-yl]-2,3-dihydro-1H-indene-5-carboxylic acid amide]"
2,100,"Cc1cc(N2CCC(N(C)C(=O)c3ccc4c(c3)C(NC(=O)CCC3CCCC3)CC4)CC2)nc(N(C)C)n1 (stereo not shown) [CC_H-622, 3-(3-Cyclopentyl-propanoylamino)-N-[1-(2-dimethylamino-6-methyl-pyrimidin-4-yl)-piperidin-4-yl]-N-methyl-2,3-dihydro-1H-indene-5-carboxylic acid amide]"
3,96,"CN(C(=O)c1ccc2c(c1)C(NC(=O)CCC1CCCC1)CC2)C1CCN(c2ccnc(C(C)(C)C)n2)CC1 (stereo not shown) [CC_H-624, N-[1-(2-tert-Butyl-pyrimidin-4-yl)-piperidin-4-yl]-3-(3-cyclopentyl-propanoylamino)-N-methyl-2,3-dihydro-1H-indene-5-carboxylic acid amide]"
4,101,"CN(C)c1nccc(N2CCC(N(C)C(=O)c3ccc4c(c3)C(NC(=O)CCC3CCCC3)CC4)CC2)n1 (stereo not shown) [CC_H-629, 3-(3-Cyclopentyl-propanoylamino)-N-[1-(2-dimethylamino-pyrimidin-4-yl)-piperidin-4-yl]-N-methyl-2,3-dihydro-1H-indene-5-carboxylic acid amide]"
5,95,"CN(C(=O)c1ccc2c(c1)C(NC(=O)CCC1CCCC1)CC2)C1CCN(c2ccnc(C3CC3)n2)CC1 (stereo not shown) [CC_H-630, 3-(3-Cyclopentyl-propanoylamino)-N-[1-(2-cyclopropyl-pyrimidin-4-yl)-piperidin-4-yl]-N-methyl-2,3-dihydro-1H-indene-5-carboxylic acid amide]"
6,95,"CN(C(=O)c1ccc2c(c1)C(NC(=O)CCC1CCCC1)CC2)C1CCN(c2ncncc2F)CC1 (stereo not shown) [CC_H-632, 3-(3-Cyclopentyl-propanoylamino)-N-[1-(5-fluoro-pyrimidin-4-yl)-piperidin-4-yl]-N-methyl-2,3-dihydro-1H-indene-5-carboxylic acid amide]"
7,93,"CN(C(=O)c1ccc2c(c1)C(NC(=O)CCC1CCCC1)CC2)C1CCN(c2ccnnc2)CC1 (stereo not shown) [CC_H-634, 3-(3-Cyclopentyl-propanoylamino)-N-methyl-N-(1-pyridazin-4-yl-piperidin-4-yl)-2,3-dihydro-1H-indene-5-carboxylic acid amide]"
